Patent US20230181599A1, “PROGESTOGEN FORMULATIONS AND USES THEREOF” (Shenzhen Evergreen Therapeutics Co., Ltd, priority 2020, published 2023)

Key:
Body weight of COPD rats = format: in vivo, Wistar rats; conditions: at 24 weeks; for weight increase: vs model group / BUD alone groups
From the text: Inhibition of weight increase was lower in 17-HPC group than in the same dose BUD group.

[1] = Saxton D J et al. 2004; cited from earlier work
[2] = target: ABCB1 efflux transporters (Homo sapiens, UniProt P08183); conditions: Bloise, E., et al. 2016; cited from earlier work
Sequence of ABCB1 efflux transporters (P08183 whole entry): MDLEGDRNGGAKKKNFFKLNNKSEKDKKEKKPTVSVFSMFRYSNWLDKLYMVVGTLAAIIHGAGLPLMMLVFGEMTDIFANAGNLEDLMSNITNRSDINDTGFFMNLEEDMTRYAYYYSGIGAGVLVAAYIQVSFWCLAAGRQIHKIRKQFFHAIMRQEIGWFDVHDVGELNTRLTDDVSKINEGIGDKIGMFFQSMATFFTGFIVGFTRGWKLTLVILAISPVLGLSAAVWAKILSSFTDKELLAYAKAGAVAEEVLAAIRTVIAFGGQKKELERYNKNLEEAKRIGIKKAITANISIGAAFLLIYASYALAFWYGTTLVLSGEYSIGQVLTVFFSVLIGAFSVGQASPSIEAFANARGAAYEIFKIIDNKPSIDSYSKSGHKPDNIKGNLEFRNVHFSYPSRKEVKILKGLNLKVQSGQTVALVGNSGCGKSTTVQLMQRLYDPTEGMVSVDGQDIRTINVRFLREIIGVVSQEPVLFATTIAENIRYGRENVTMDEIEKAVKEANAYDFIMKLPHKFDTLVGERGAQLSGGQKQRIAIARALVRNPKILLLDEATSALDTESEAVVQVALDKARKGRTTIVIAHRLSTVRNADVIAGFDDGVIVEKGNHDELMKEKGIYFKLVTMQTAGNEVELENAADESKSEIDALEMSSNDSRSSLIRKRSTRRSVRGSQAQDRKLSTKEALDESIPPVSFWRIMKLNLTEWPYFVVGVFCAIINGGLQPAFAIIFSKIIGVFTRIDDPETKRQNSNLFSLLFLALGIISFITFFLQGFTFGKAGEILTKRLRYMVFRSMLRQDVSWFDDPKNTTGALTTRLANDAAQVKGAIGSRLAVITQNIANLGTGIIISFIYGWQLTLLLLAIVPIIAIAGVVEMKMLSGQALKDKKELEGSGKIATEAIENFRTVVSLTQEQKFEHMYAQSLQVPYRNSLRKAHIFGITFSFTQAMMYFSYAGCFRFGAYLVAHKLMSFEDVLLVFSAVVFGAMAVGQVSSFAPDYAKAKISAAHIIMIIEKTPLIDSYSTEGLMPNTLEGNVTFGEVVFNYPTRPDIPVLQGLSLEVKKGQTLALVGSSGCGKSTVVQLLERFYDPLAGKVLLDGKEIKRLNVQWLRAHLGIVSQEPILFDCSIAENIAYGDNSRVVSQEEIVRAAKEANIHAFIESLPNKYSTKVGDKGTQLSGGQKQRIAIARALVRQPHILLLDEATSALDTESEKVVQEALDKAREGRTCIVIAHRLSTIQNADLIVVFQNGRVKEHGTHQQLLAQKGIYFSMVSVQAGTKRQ

Sprague-Dawley rats = assay: Seven-day inhalation toxicity study in rats (GLP); format: in vivo
Method: (§1) A 7-day inhalation toxicity study in rats was conducted under GLP conditions. In this study, aerosolized 17-HPC was administered to Sprague-Dawley rats (10/sex/group) at 8, 24, and 72 mg/kg/day for 7 consecutive days. A control group of rats was dosed with aerosolized vehicle. Animals were observed daily for clinical signs. Body weight and food consumption were recorded at pretest, and then on Days 1, 4, and 7. In order to evaluate reversibility of 17-HPC treatment, a satellite rat group (5/sex/group) was dosed by inhalation at 72 mg/kg/day for 7 days, and then was sacrificed on Day 14. Except for the rats in the satellite group, all animals were sacrificed on Day 8. Hematology and biochemistry examinations were performed at the end of the study. Organ weight, gross pathology, and histopathology evaluations were performed.
(§2) Histopathological examinations on the animal tissues from the 24 and 72 mg/kg/day groups have not been completed prior to submission of this pre-IND package.
(§3) Based on the preliminary results of this study, inhalational administration of 17-HPC at 8 mg/kg/day (48 mg/m^2/day) was determined as the no observed adverse effect level (NOAEL) The proposed clinical study is a single dose inhalation study starting at a dose level of 300 μg, which is approximately 6 μg/kg/day (222 μg/m^2/day) based on a human body weight of 50 kg/person. Therefore, the NOAEL generated in this inhalation study is approximately 216 times greater than the proposed initial clinical dose based on body surface areas.

[3] = Seven-day inhalation toxicity study in rats (GLP); format: in vivo, Sprague-Dawley rats; conditions: both sexes, Sprague-Dawley, rat, in vivo, inhaled or intranasal; inhalation, 7 consecutive days, rats; preliminary results; read-out: no observed adverse effect level (NOAEL)
Method: as §1, §2, §3

[4] = tested on: TNF-α, IL-1β, IL-6 and IL-17; assay: Serum and BALF cytokine levels by ELISA in COPD rats; format: in vivo, Wistar rats; conditions: different doses, aside from the low dose (0.1 mg/ml) 17-HPC group
Method: (§4) To examine the in vitro and in vivo efficacy of 17-HPC inhalation in chronic obstructive pulmonary disease (COPD) rats, a rat model of COPD was established by exposing Wistar rats to CS for 1 hour every day for a total of 180 days. Seventy-two Wistar rats were randomly divided into the blank control group, model group, 17-HPC (0.5 mg/ml, 0.25 mg/ml and 0.1 mg/ml) groups, BUD (0.5 mg/ml and 0.1 mg/ml) groups, and combination treatment (0.5 mg/ml BUD+0.25 mg/ml 17-HPC and 0.1 mg/ml BUD+0.25 mg/ml 17-HPC) groups. Drug concentration is the nebulized solution concentration. Lung function (forced vital capacity) of rats was measured using the small animal spirometer, and differential count in the BALF was determined under the microscope. Serum and BALF cytokine (IL-6, IL-17, TNF-α and IL-β) levels were measured by ELISA. Inflammatory cell infiltration area and MLI in rat lung tissues were determined by HE staining.

[5] = PK of oral formulations of PR2005 in female dogs, relative bioavailability vs intramuscular injection (MAKENA); format: in vivo
From the text: This study determined the pharmacokinetic parameters of the test drug PR2005 (also referred to herein as 17-HPC) in different formulations after oral gavage or capsule administrations in dogs. This study further determined the relative bioavailability of the test drug PR2005 in each formulation, compared to intramuscular injection solution (MAKENA®).
PK parameters were estimated, including maximum plasma drug concentration (Cmax), time to reach Cmax (Tmax), time delay in absorption process (Tlag), area under the plasma concentration-time curve from time 0 to the last quantifiable data point (AUClast), area under the plasma concentration-time curve from time zero to infinity (AUCinf), plasma half-life (t1/2), and apparent plasma clearance (CL/F), apparent volume of distribution (Vz/F). All these parameters were computed using standard non-compartmental methods of analysis. Geometric mean and CV % are reported for most of PK parameters, and median with range is reported for Tmax and Tlag. Plasma PR2005 PK data was analyzed in Pheonix WinNonLin 8.1 (Certara USA, Inc.).
Log-transformed values of AUCinf were analyzed using a linear mixed-effects model. Least squares mean (LSM) for each treatment group and 90% confidence interval (CI) for the mean of the pairwise differences were estimated using this model. After back transformation from the log scale, estimates of geometric LSM and 90% CI for the ratio of means were calculated. Relative bioavailability (Fr %) was calculated as the ratio of dose normalized geometric least square mean (LSM) for test formulation and IM solution: […]
PR2005 250 mg intramuscular injection: 250 mg 17-HPC, 28.6% v/v of castor oil (CAS 8001-79-4), 46% v/v of benzyl benzoate (CAS 120-51-4), and 2% v/v of benzyl alcohol.
PR2005 250 mg oral (powder in capsules): 20% w/w of 17-HPC and 80% w/w mannitol. The particle size of 17-HPC is from about 2 to about 10 μm.
PR2005 250 mg Suspension #1: 30% w/w of 17-HPC and 70% castor oil (CAS 8001-79-4). The particle size of 17-HPC is from about 5 to about 30 μm.
PR2005 250 mg and 750 mg Solution #3: 30% w/w of 17-HPC, 63% w/w of benzyl benzoate (CAS 120-51-4), and 7% w/w of macrogolglycerol ricinoleate (CAS 61791-12-6).
The test items were administered on the first day of each trial. Each animal group was rotated through each trial with at least 4 days between trials and a […] 7-day washout between each test item administration.

[6] = tested on: smoke exposure-induced COPD rats; assay: Lung function (FEV0.2/FVC, small animal spirometer) in smoke exposure-induced COPD rats; format: in vivo, Wistar rats; conditions: CS-exposed rats, nebulized drug; compared with the model group
Method: as §4, with “Seventy-two” for “To examine the in vitro and in vivo efficacy of 17-HPC inhalation in chronic obstructive pulmonary disease (COPD) rats, a rat model of COPD was established by exposing Wistar rats to CS for 1 hour every day for a total of 180 days. Seventy-two”, “staining. Lung function of rats was measured using the small animal spirometer after 24 weeks of CS exposure.” for “staining.”

[7] = tested on: smoke exposure-induced COPD rats; assay: Differential count in BALF (neutrophils) of COPD rats; format: in vivo, Wistar rats; conditions: CS-exposed rats, nebulized drug
Method: as §4, with “Seventy-two” for “To examine the in vitro and in vivo efficacy of 17-HPC inhalation in chronic obstructive pulmonary disease (COPD) rats, a rat model of COPD was established by exposing Wistar rats to CS for 1 hour every day for a total of 180 days. Seventy-two”, “staining. […] The efficacy of high dose BUD was equivalent to that of high dose BUD+17-HPC.” for “staining.”

[8] = tested on: smoke exposure-induced COPD rats; assay: HE staining of lung tissue: inflammatory cell infiltration area and MLI in COPD rats; format: in vivo, Wistar rats
Method: as §4, with “Seventy-two” for “To examine the in vitro and in vivo efficacy of 17-HPC inhalation in chronic obstructive pulmonary disease (COPD) rats, a rat model of COPD was established by exposing Wistar rats to CS for 1 hour every day for a total of 180 days. Seventy-two”, “staining. […] The efficacy of high dose BUD was equivalent to that of high dose BUD+17-HPC.” for “staining.”

[9] = 250 mg intramuscular injection, geometric mean

SMILES	weight increase (Body weight of COPD rats)	activity when administered orally [1]	Inhibition of weight increase vs same dose BUD group (Body weight of COPD rats)	ABCB1 efflux transporter substrate [2]	no observed adverse effect level (NOAEL), body surface area (Sprague-Dawley rats; inhalation, 7 days, rats) [mg/m^2/day]	NOAEL relative to the proposed initial clinical dose (300 μg) based on body surface areas (Sprague-Dawley rats; rat, in vivo)	pathological alterations after a 7-day recovery period (Sprague-Dawley rats; rat, in vivo, 72 mg/kg/day)	NOAEL at 7 days [3] [mg/kg/day]	TNF-α, IL-1β, IL-6 and IL-17 levels in the BALF [4]	Cl/F [5, 9] [L/h]	V [5, 9] [L]	half-life ([5]; female, dog, plasma, im, 250 mg intramuscular injection, geometric mean) [h]	Tmax ([5]; female, dog, plasma, im, 250 mg intramuscular injection, median) [h]	dose proportionality of Cmax and AUC, 250 to 750 mg ([5]; oral)	FEV0.2/FVC % [6]	percentage of neutrophils in rat BALF [7]	inflammatory cell infiltration in lung tissue sections (HE staining) ([8]; 17-HPC groups vs model rats)	MLI ([8]; aside from the 0.1 mg/ml 17-HPC group, dose-dependent)	inflammatory cell infiltration in the lung tissues ([8]; high dose 17-HPC)
CCCC1O[C@@H]2C[C@H]3[C@@H]4CCC5=CC(=O)C=C[C@]5(C)[C@H]4[C@@H](O)C[C@]3(C)[C@]2(C(=O)CO)O1 (some centres unmarked) [BUD, budesonide]	inhibited weight increase	–	–	–	–	–	–	–	–	–	–	–	–	–	–	–	–	–	–
CCCCCC(=O)O[C@]1(C(C)=O)CC[C@H]2[C@@H]3CCC4=CC(=O)CC[C@]4(C)[C@H]3CC[C@@]21C [Solution 17-HPC, 17-[(1-Oxohexyl)oxyl]-pregn-4-ene-3,20-dione]	no difference in weight increase	inactive	lower	substrate of ABCB1 efflux transporters	48	approximately 216 times	no remarkable pathological alterations	8	downregulate	35.68	2485	48.4	48	generally greater than dose proportional	improved FEV0.2/FVC % in a dose-dependent manner	reduced the percentage of neutrophils	attenuated	decreased	antagonize inflammatory cell infiltration
